Patent publication US5118791A, “Biologically active polypeptides based on transforming growth factor-β” (Genentech, Inc., priority 1991, dated 1992)
Where no end group is shown, it is not given here.

How the values were obtained:
Type in all cases: cell-based
[1] = test system: Mu-1-Lv (ATCC CCL 64) mink lung epithelial-like cell; test: Inhibition of proliferation of cultured mink lung cells (3H-thymidine incorporation); details: CCL-64 mink lung cells, 24 hours, FIG. 1
Description: The cell line Mu-1-Lv (ATCC CCL 64, Rockville, MD), a mink lung epithelial-like cell, was used to detect TGF-β activity. Mul-1-Lv cells maintained by weekly passage in vitro in CMEM consisting of Eagle's minimum essential medium supplemented with 0.1 mM nonessential amino acids, 2 mM L-glutamine, 1 MM sodium pyruvate (Gibco, Grand Island, NY), and 10% heat-inactivated fetal bovine serum (FBC; HyClone Laboratoris, Logan, UT) were placed into 96-well flat-bottom microtiter plates (10,000/well; Falcon 3075) at a final volume of 200 μl/well. The plates were incubated at 37° C.+5% CO2 for 24 hours. During the last 4 hours of culture, 1 μCi of {3H} thymidine (20 μl/well, 5.0 Ci/mmol; Amersham Corp.) was added. After labeling, 100 μl/well of 10 x Trypsin-EDTA was added per well and the plates were incubated for an additional 15 min. at 37° C. Cells were harvested onto glass filters and counted in a liquid scintillation counter (LS 6800, Beckman, Fullerton, CA). Results (pg/ml of TGF-β) were calculated based on percent inhibition of thymidine incorporation compared with a rHuTGF-β1 laboratory standard.

human lymphocytes [2] = test: Inhibition of human lymphocyte proliferation in response to PHA-P; details: PHA-P 1 μg/ml, three days, dose-dependent, FIG. 6
human lymphocytes [3] = test: Inhibition of human lymphocyte proliferation in response to tetanus toxoid; details: tetanus toxoid 2 LF units/ml, six days, dose-dependent, FIG. 4
Description: The medium employed was complete RPMI-1640, i.e., RPMI-1640 (Gibco) supplemented with 10% human pooled AB serum (Hazelton Biologics Inc., Lenexa, KS), 100 u/ml penicillin/100 μg/ml streptomycin, 2 mM L-glutamine (Gibco), 1 mM sodium pyruvate (Gibco), 1% MEM non-essential amino acids (Gibco, 100x), 25 mM HEPES (Gibco), and 1% Nutridoma (Boehringer Manheim).
Heparinized venous blood (10 u/ml; bovine lung, Upjohn) was mixed with an equal volume of isotonic saline. Approximately 30 ml of the diluted blood was layered over 15 ml of lymphocyte separation medium (LSM, Organon Technika) in […] conical polypropylene centrifuge tubes (Falcon Plastics). The tubes were centrifuged for 40 min. at 400× g at 22° C. […]
To each of sextuplicate wells of a 96-well flat-bottom microtiter plate (Falcon Plastics) was added 100 μl of the cell suspension. […] The filter discs were dried and suspended in 2 ml of liquid scintillation cocktail (Econofluor, New England Nuclear) in mini-scintillation vials and incorporated radioactivity was determined by liquid scintillation spectrophotometry. Data were expressed as mean counts per min. of the quadruplicate samples, where the cpm of the media control was substrated from the cpm of the stimulated sample.

human lymphocytes [4] = test: Inhibition of human lymphocyte proliferation in response to PMA; details: PMA 40 ng/ml, three days, dose-dependent, FIG. 5

In the case of CVRQLYIDFRKDLGWK [free polypeptide], the “cpm incorporated (activity) as a function of the reciprocal of dilution” value [1] is reported as “comparable, i.e., low at the low dilution level and high at the high dilution levels”.
“TGF-β1: mature, full-length transforming growth factor-β1” was tested, and the “inhibition of proliferation of human lymphocytes in response to PHA-P” value (human lymphocytes [2]) was “also exhibits this dose-dependent effect”, the “inhibition of proliferation of human lymphocytes in response to tetanus toxoid” value (human lymphocytes [3]) was “also exhibits this dose-dependent effect” and the “inhibition of proliferation of human lymphocytes in response to PMA” value (human lymphocytes [4]) was “also exhibits this dose-dependent effect”.
